Like-named read-outs stand apart in the source and are kept apart here. Starred links: 1 amine or outer side, 2 acyl side, 3 side chain; linkers in the order of their positions; H or OH if unused. Non-standard residues stand in square brackets, D forms with d. Residues, ends and D or L forms follow the SMILES beside them. Groups on a side chain read outwards from the residue. *: point of attachment. C20 diacid = O=C(O)CCCCCCCCCCCCCCCCCCC(=O)*; C18 diacid = O=C(O)CCCCCCCCCCCCCCCCC(=O)*; γGlu = O=C(O)[C@H](CCC(=O)[*:2])N[*:1]; Palmitoyl = CCCCCCCCCCCCCCCC(=O)*; AEEA = NCCOCCOCC(=O)O; Aib = CC(C)(N)C(=O)O
Columns and labels:
human CRF2α receptor = molecular target: T1, human CRF2α receptor (Homo sapiens, UniProt Q13324); assay: cAMP agonism at human CRF2 α receptor in TeloHEAC cells (Example 7); format: cell-based; settings: cAMP HTRF, TeloHEAC cells stably expressing human CRF2 α
T1 construct: expressed in transfected cells; host or cells: TeloHEAC
T1 sequence (Q13324 1-411): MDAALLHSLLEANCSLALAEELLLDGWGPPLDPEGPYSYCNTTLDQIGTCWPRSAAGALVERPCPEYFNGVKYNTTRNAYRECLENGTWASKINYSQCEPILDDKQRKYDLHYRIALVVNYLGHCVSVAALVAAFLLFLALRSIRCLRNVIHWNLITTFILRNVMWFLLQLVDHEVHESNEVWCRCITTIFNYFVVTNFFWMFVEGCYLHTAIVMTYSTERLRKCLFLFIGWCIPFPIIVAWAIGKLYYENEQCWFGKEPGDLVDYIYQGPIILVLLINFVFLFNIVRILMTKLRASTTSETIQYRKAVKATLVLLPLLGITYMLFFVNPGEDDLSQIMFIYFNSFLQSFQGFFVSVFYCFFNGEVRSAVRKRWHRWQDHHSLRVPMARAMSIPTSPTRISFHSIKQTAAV
Procedure, shortened: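 Percent activation was referenced to 1000 nM UCN2 (100%), and EC50 values taken as concentrations giving half of maximal response. The read-out was a homogeneous time-resolved fluorescence cAMP kit, fluorescence ratio 665/620 nm. Thawed cells (2000/well) saw compound for 30 min at RT in buffer with 2 mM IBMX and 0%/0.1% HSA.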

CRF1R receptor = molecular target: T2, CRF1R receptor (Homo sapiens, UniProt P34998); assay: cAMP activity at anti-target CRF1R, CRF1R-overexpression CHO cell line (Example 9); format: cell-based; settings: CRF1R-overexpression CHO cell line; for EC50: 0% HSA; for Emax: read-out: Emax (%)
T2 construct: host or cells: CHO-K1 clone 2
T2 sequence (P34998 24-415): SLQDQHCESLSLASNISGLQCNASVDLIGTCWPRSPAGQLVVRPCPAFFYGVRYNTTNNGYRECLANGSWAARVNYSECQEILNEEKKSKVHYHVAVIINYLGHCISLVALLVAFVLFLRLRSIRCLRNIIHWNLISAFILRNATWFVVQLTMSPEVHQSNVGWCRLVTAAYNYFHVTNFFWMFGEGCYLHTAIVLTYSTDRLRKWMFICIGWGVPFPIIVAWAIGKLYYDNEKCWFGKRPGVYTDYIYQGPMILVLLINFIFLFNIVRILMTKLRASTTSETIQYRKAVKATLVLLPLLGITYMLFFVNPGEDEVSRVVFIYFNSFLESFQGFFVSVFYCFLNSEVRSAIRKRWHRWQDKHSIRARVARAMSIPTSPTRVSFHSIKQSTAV
Procedure, shortened: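 Using thawed CRF1R-overexpressing CHO cells at 2000 per well, compound is applied for 30 min at RT in HBSS/HEPES buffer with IBMX. Cellular cAMP content is determined via HTRF, and percent activity is calculated against 1000 nM UCN2 defined as 100%.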

[1] = Solubility in buffer systems by UPLC-UV (Example 13); format: physicochemical
Procedure, shortened: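 Quantitation used UV peak area from UPLC of the 1:10-diluted supernatant, set against a reference-compound standard curve with extinction coefficients adjusted for amino acid sequence.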

[2] = Physical stability, Thioflavin T fibrillation assay (Example 14); format: physicochemical; settings: 3 mg/ml, 37° C. shaking
Procedure: The physical stability of the compounds was assessed using a Thioflavin T (ThT) assay.
The time course for fibril formation often follows the characteristic shape of a sigmoidal curve and can be separated into three regions: a lag phase, a fast growth phase, and a plateau phase. The typical fibril formation process starts with the lag phase in which the amount of partially folded peptide turned into fibrils is not significant enough to be detected. The lag-time corresponds to the time the critical mass of the nucleus is built. Afterwards, a drastic elongation phase follows and fibril concentration increases rapidly. Therefore, by measuring the increase in fluorescence intensity attributable to ThT as well as the lag time of the increase, the fibrillation tendency of a peptide can be determined, thereby providing a measure of the physical stability of the peptide.
In the present study, test compounds were diluted in buffer to a final concentration of 3 mg/ml.
The fibrillation tendencies of the peptides were determined under stress using a Fluoroskan Ascent FL or Fluoroskan Ascent fluorometer. […] Plates were sealed with Scotch Tape (Quiagen). Samples were stressed by continuous cycles of 10 s shaking at 960 rpm and 50 s rest period at 37° C. Fibril development was monitored by measuring fluorescence intensity every 20 minutes. For each sample, eight replicates were tested.

rat CRF2R α receptor = assay: cAMP agonism at rat CRF2R α receptor in A7R5 rat aortic smooth muscle cells (Example 8); format: cell-based; settings: cAMP HTRF, A7R5 rat aortic smooth muscle cell line, 0% HSA
Procedure, shortened: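 Potency (EC50) is the concentration reaching half-maximal activation, with responses scaled so that 1000 nM urocortin 2 equals 100%. Intracellular cAMP was quantified by homogeneous time-resolved fluorescence at 665/620 nm, 1 h after lysis-buffer reagents. Compound stimulation lasted 30 min at room temperature on 2000 IBMX-treated (2 mM) cells per well in HEPES-buffered HBSS.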

[3] = 0% HSA, read-out: EC50 [nM], 0% HSA
[4] = pH 4.5, Solubility in Buffer B [mg/ml]
[5] = Buffer A: 100 mM acetate buffer, pH 4.5
[6] = 0.1% HSA, read-out: EC50 [nM], 0.1% HSA
[7] = Buffer B: 100 mM acetate buffer, pH 4.5, 2.7 mg/ml m-cresol

Structure (SMILES) | EC50 (human CRF2α receptor; [3]) | EC50 (CRF1R receptor) | Emax (CRF1R receptor) | solubility at 1 h [1, 4] | Increase in FI (fluorescence intensity) [2, 5] | Lag time [2, 5] | EC50 (human CRF2α receptor; [6]) | Increase in FI (fluorescence intensity) [2, 7] | Lag time [2, 7] | EC50 (rat CRF2R α receptor) | solubility at 1 h ([1]; pH 7.4, Solubility in Buffer C [mg/ml])
CCCCCCCCCCCCCCCC(=O)N[C@@H](CCC(=O)NCCCC[C@H](NC(=O)[C@H](CC(C)C)NC(=O)CNC(=O)[C@@H](NC(=O)[C@@H]1CCCN1C(=O)[C@@H](NC(=O)[C@H](CC(=O)O)NC(=O)[C@H](CC(C)C)NC(=O)[C@H](CO)NC(=O)[C@H](CC(C)C)NC(=O)[C@@H](NC(=O)[C@@H](N)[C@@H](C)CC)C(C)C)C(C)C)[C@@H](C)CC)C(=O)N[C@@H](CCC(N)=O)C(=O)N[C@@H](CCCCN)C(=O)N[C@@H](CC(C)C)C(=O)N[C@@H](CC(C)C)C(=O)N[C@@H](CCCCN)C(=O)N[C@@H](CCC(N)=O)C(=O)N[C@@H](CCC(=O)O)C(=O)N[C@@H](CCCCN)C(=O)N[C@@H](CCC(N)=O)C(=O)N[C@@H](CCC(=O)O)C(=O)N[C@@H](CCCCN)C(=O)N[C@@H](CCC(=O)O)C(=O)N[C@@H](CCCCN)C(=O)N[C@@H](CCC(N)=O)C(=O)N[C@@H](CCC(N)=O)C(=O)N[C@@H](C)C(=O)N[C@@H](CCC(=O)O)C(=O)N[C@H](C(=O)N[C@@H](CC(N)=O)C(=O)N[C@@H](C)C(=O)N[C@@H](CCCCN)C(=O)N[C@H](C(=O)N[C@@H](CC(C)C)C(=O)N[C@@H](C)C(=O)N[C@@H](CCC(N)=O)C(=O)N[C@H](C(N)=O)C(C)C)[C@@H](C)CC)[C@@H](C)O)C(=O)O [compound 4] (H-IVLSLDVPIGLK([γGlu-Palmitoyl])QKLLKQEKQEKEKQQAETNAKILAQV-NH2; N-terminus assumed) | 0.04 nM | > 1000 nM | 17.4% | > 9.6 mg/mL | Yes | 18 h |  |  |  |  | 
CCCCCCCCCCCCCCCC(=O)N[C@@H](CCC(=O)NCCCC[C@H](NC(=O)[C@H](CC(C)C)NC(=O)[C@H](CCCCN)NC(=O)[C@@H](NC(=O)[C@@H]1CCCN1C(=O)[C@H](NC(=O)[C@H](CC(=O)O)NC(=O)[C@H](CC(C)C)NC(=O)[C@H](CO)NC(=O)[C@H](CC(C)C)NC(=O)[C@@H](NC(=O)[C@@H](N)[C@@H](C)CC)C(C)C)C(C)C)[C@@H](C)O)C(=O)N[C@@H](CCC(N)=O)C(=O)N[C@@H](CCCCN)C(=O)N[C@@H](CC(C)C)C(=O)N[C@@H](CC(C)C)C(=O)N[C@@H](CCCCN)C(=O)N[C@@H](CCC(N)=O)C(=O)N[C@@H](CCC(=O)O)C(=O)N[C@@H](CCCNC(=N)N)C(=O)N[C@@H](CCC(N)=O)C(=O)N[C@@H](CCCNC(=N)N)C(=O)N[C@@H](CCCCN)C(=O)N[C@@H](CCC(=O)O)C(=O)N[C@@H](CCCNC(=N)N)C(=O)N[C@@H](CCC(=O)O)C(=O)N[C@@H](CCC(N)=O)C(=O)N[C@@H](C)C(=O)N[C@@H](CCC(=O)O)C(=O)N[C@@H](CCCCN)C(=O)N[C@@H](CC(N)=O)C(=O)N[C@@H](C)C(=O)N[C@@H](CCCNC(=N)N)C(=O)N[C@H](C(=O)N[C@@H](CC(C)C)C(=O)N[C@@H](C)C(=O)N[C@@H](CCCNC(=N)N)C(=O)N[C@H](C(N)=O)C(C)C)[C@@H](C)CC)C(=O)O [compound 7] (H-IVLSLD[dV]PTKLK([γGlu-Palmitoyl])QKLLKQERQRKEREQAEKNARILARV-NH2) | 0.02 nM |  | 58.6% | > 8.9 mg/mL |  |  | 0.03 nM | No | >45 h |  | 
CC[C@H](C)[C@H](NC(=O)[C@H](CCC(N)=O)NC(=O)[C@H](CCCCNC(=O)COCCOCCNC(=O)COCCOCCNC(=O)CC[C@H](NC(=O)CCCCCCCCCCCCCCCCCCC(=O)O)C(=O)O)NC(=O)[C@@H](NC(=O)[C@H](CCCCN)NC(=O)[C@@H](NC(=O)[C@@H]1CCCN1C(=O)[C@@H](NC(=O)[C@H](CC(=O)O)NC(=O)[C@H](CC(C)C)NC(=O)[C@H](CO)NC(=O)[C@H](CC(C)C)NC(=O)[C@@H](NC(=O)[C@@H](N)Cc1ccccc1)[C@@H](C)O)C(C)C)[C@@H](C)O)[C@@H](C)CC)C(=O)N[C@@H](CC(C)C)C(=O)N[C@@H](CC(C)C)C(=O)N[C@@H](CCCCN)C(=O)N[C@@H](CCC(N)=O)C(=O)N[C@@H](CCC(N)=O)C(=O)N[C@@H](CCCCN)C(=O)N[C@@H](CCC(N)=O)C(=O)N[C@@H](CCCCN)C(=O)N[C@@H](CCCCN)C(=O)N[C@@H](CCC(=O)O)C(=O)N[C@@H](CCCNC(=N)N)C(=O)N[C@@H](CCC(N)=O)C(=O)N[C@@H](CCC(N)=O)C(=O)N[C@@H](C)C(=O)N[C@@H](CCC(=O)O)C(=O)N[C@@H](CCCCN)C(=O)N[C@@H](CC(N)=O)C(=O)N[C@@H](CCCCN)C(=O)N[C@@H](CCC(N)=O)C(=O)N[C@@H](CC(C)C)C(=O)N[C@@H](CC(C)C)C(=O)N[C@@H](CCC(=O)O)C(=O)N[C@@H](CCCNC(=N)N)C(=O)N[C@H](C(N)=O)C(C)C [compound 60] (H-FTLSLDVPTKIK([AEEA-AEEA-γGlu-C20 diacid])QILLKQQKQKKERQQAEKNKQLLERV-NH2) | 0.48 nM | > 1000 nM | 4.84% | > 11.5 mg/mL | No | >45 h |  | No | >45 h | 1.35 nM | > 11 mg/mL
CC[C@H](C)[C@H](N)C(=O)N[C@H](C(=O)N[C@@H](CC(C)C)C(=O)N[C@@H](CO)C(=O)N[C@@H](CC(C)C)C(=O)N[C@@H](CC(=O)O)C(=O)N[C@@H](C(=O)N1CCC[C@H]1C(=O)N[C@H](C(=O)N[C@@H](CCCCN)C(=O)N[C@@H](CC(C)C)C(=O)N[C@@H](CCCCNC(=O)COCCOCCNC(=O)COCCOCCNC(=O)CC[C@H](NC(=O)CCCCCCCCCCCCCCCCC(=O)O)C(=O)O)C(=O)N[C@@H](CCC(N)=O)C(=O)N[C@H](C(=O)N[C@@H](CC(C)C)C(=O)N[C@@H](CC(C)C)C(=O)N[C@@H](CCC(=O)O)C(=O)N[C@@H](CCC(N)=O)C(=O)N[C@@H](CCC(=O)O)C(=O)N[C@@H](CCCNC(=N)N)C(=O)N[C@@H](CCC(N)=O)C(=O)N[C@@H](CCCCN)C(=O)NC(C)(C)C(=O)N[C@@H](CCC(N)=O)C(=O)N[C@@H](CCCNC(=N)N)C(=O)N[C@@H](CCC(=O)O)C(=O)N[C@@H](CCC(N)=O)C(=O)N[C@@H](C)C(=O)N[C@@H](CCC(=O)O)C(=O)N[C@@H](CCCCN)C(=O)N[C@@H](CC(N)=O)C(=O)N[C@@H](CCCCN)C(=O)N[C@@H](CCC(N)=O)C(=O)N[C@H](C(=O)N[C@@H](CC(C)C)C(=O)N[C@@H](CCC(=O)O)C(=O)N[C@@H](CCCNC(=N)N)C(=O)N[C@H](C(N)=O)C(C)C)[C@@H](C)CC)[C@@H](C)CC)[C@@H](C)CC)C(C)C)C(C)C [compound 132] (H-IVLSLD[dV]PIKLK([AEEA-AEEA-γGlu-C18 diacid])QILLEQERQK[Aib]QREQAEKNKQILERV-NH2) | 0.38 nM | > 1000 nM | 36.9% |  |  |  | 8.76 nM | No | >45 h | 0.79 nM | 

Reference: patent publication US12679878B2, “CRF2 receptor agonists and their use in therapy” (SANOFI, priority 2020, dated 2026)
